Measurements published in ChEMBL document CHEMBL5338752, “Carbamate JNK3 Inhibitors Show Promise as Effective Treatments for Alzheimer's Disease: In Vivo Studies on Mouse Models” (J Med Chem, 2023).
Calls of active or inactive are those of the source. The rule behind the calls is not given here.

Tests used:
Neuron [1] = experiment: Inhibition of anisomycin induced JNK activation in rat cortex neuron cells assessed as fold reduction in Jun phosphorylation levels at 10 to 20 uM preincubated for 90 mins followed by anisomycin addition and measured after 40 mins by Western blot analysis; assay type: cell-based; settings: dose 10-20 µM, time 130.0 min
Mus musculus [2] = experiment: Anti-alzheimer activity against APP/PS1 dE9 double transgenic mouse model assessed as escape latency time at 60 mg/kg, po administered daily for 2 months and measured after 60 days by Passive avoidance test (reference value: 28.6+/-4.3 sec); assay type: functional; settings: time 60 day
[3] = molecular target: Mitogen-activated protein kinase 10 (Rattus norvegicus) (UniProt P49187); experiment: Inhibition of anisomycin induced JNK3 activation in rat cortex neuron cells assessed as reduction in Jun phosphorylation levels at 10 to 20 uM preincubated for 90 mins followed by anisomycin addition and measured after 40 mins by Western blot analysis; assay type: cell-based; settings: dose 10-20 µM, time 130.0 min
Mitogen-activated protein kinase 10 (Rattus norvegicus), sequence (P49187 whole entry): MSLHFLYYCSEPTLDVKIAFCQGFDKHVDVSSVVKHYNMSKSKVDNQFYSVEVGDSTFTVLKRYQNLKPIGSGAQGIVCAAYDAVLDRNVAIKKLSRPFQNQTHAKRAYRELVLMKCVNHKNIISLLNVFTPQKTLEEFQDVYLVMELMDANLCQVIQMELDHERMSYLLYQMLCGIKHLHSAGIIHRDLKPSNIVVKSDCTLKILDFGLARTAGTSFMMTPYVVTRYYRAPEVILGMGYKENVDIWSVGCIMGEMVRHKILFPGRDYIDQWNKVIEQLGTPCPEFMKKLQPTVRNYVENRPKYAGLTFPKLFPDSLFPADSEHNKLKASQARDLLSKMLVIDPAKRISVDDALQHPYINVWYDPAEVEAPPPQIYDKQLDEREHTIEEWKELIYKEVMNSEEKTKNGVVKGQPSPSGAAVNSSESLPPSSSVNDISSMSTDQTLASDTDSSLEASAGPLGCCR

Mus musculus [4] = experiment: Anti-alzheimer activity against triple transgenic mouse alzheimer disease model assessed as time spent in target zone at 60 mg/kg, po administered daily for 2.2 months and measured after 137 days by Morris water maze test (reference value: 4.48+/-1.63 sec); assay type: functional; settings: time 137 day
Mus musculus [5] = experiment: Anti-alzheimer activity against triple transgenic mouse alzheimer disease model assessed as spontaneous alteration at 30 mg/kg, po administered daily for 2.2 months and measured after 119 days by Y-maze test (reference value: 45.55+/-2.30%); assay type: functional; settings: time 119 day
Mus musculus [6] = experiment: Anti-alzheimer activity against APP/PS1 dE9 double transgenic mouse model assessed as spontaneous alteration at 60 mg/kg, po administered daily for 2 months and measured after 57 days by Y-maze test (reference value: 40.75+/-2.25%); assay type: functional; settings: time 57 day
[7] = Tmax in sixteen hrs fasted Sprague-Dawley rat at 3 mg/kg, po measured upto 24 hrs by LC-MS/MS analysis; assay type: ADME, organism-based; settings: in vivo
[8] = molecular target: Mitogen-activated protein kinase 10 (Rattus norvegicus) (UniProt P49187); experiment: Inhibition of A-beta (1 to 42) induced JNK3 activation in rat cortex neuron cells assessed as reduction in c-Jun phosphorylation levels at 10 to 20 uM incubated for 24 hrs in presence of A-beta (1 to 42) by Western blot analysis; assay type: cell-based; settings: dose 10-20 µM
Mus musculus [9] = experiment: Anti-alzheimer activity against triple transgenic mouse alzheimer disease model assessed as latency time at 30 mg/kg, po administered daily for 2.2 months and measured after 122 to 123 days by passive avoidance test (reference value: 31.3+/-6.9 sec); assay type: functional; settings: time 122-123 day
Mus musculus [10] = experiment: Anti-alzheimer activity against APP/PS1 dE9 double transgenic mouse model assessed as time spent in target zone at 60 mg/kg, po administered daily for 2 months and measured after 74 days by Morris water maze test (reference value: 6.76+/-3.20 sec); assay type: functional; settings: time 74 day
[11] = molecular target: Mitogen-activated protein kinase 10 (Rattus norvegicus) (UniProt P49187); experiment: Inhibition of anisomycin induced JNK3 activation in rat cortex neuron cells assessed as inhibition of APP phosphorylation at 10 to 20 uM preincubated for 90 mins followed by anisomycin addition and measured after 40 mins by Western blot analysis; assay type: cell-based; settings: dose 10-20 µM
[12] = molecular target: Mitogen-activated protein kinase 14 (Homo sapiens) (UniProt Q16539); experiment: Inhibition of p38alpha (unknown origin) at 1.0 uM preincubated for 20 mins followed by 33P-ATP addition and measured after 2 hrs by P81 filter binding method relative to control; settings: time 140.0 min
Mitogen-activated protein kinase 14 (Homo sapiens), sequence (Q16539 whole entry): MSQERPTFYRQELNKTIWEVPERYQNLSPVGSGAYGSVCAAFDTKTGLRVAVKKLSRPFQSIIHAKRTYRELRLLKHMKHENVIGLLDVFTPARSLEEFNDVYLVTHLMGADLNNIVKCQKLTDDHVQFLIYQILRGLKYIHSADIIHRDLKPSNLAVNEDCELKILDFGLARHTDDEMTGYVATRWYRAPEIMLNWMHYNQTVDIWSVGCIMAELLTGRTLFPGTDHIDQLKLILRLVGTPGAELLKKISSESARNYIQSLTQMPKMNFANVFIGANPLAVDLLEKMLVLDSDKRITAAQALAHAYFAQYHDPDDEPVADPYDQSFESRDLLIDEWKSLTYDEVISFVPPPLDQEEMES

Mus musculus [13] = experiment: Anti-alzheimer activity against APP/PS1 dE9 double transgenic mouse model assessed as escape latency time at 30 mg/kg, po administered daily for 2 months and measured after 60 days by Passive avoidance test (reference value: 28.6+/-4.3 sec); assay type: functional; settings: time 60 day
Mus musculus [14] = experiment: Anti-alzheimer activity against APP/PS1 dE9 double transgenic mouse model assessed as time spent in platform quadrant at 30 mg/kg, po administered daily for 2 months and measured after 74 days by Morris water maze test (reference value: 10.50+/-4.15 sec); assay type: functional; settings: time 74 day
Neuron [15] = experiment: Neuroprotective activity against rat neuron cells assessed as inhibition of Abeta(1-42)-induced cytotoxicity by measuring increase in cell viability at 20 uM incubated for 48 hrs by MTT assay relative to control; assay type: functional
Mus musculus [16] = experiment: Anti-alzheimer activity against triple transgenic mouse alzheimer disease model assessed as path length at 60 mg/kg, po measured upto 5 days by Morris water maze test (reference value: 608.85+/-39.27 cm); assay type: functional; settings: time <= 5 day
Mus musculus [17] = experiment: Anti-alzheimer activity against triple transgenic mouse alzheimer disease model assessed as reduction in tau phosphorylation level at T181 residue in hippocampal tissue at 30 to 60 mg/kg by Western blot analysis; assay type: functional, organism-based; settings: dose 30-60 mg/kg
[18] = Apparent permeability of the compound across apical side to basolateral side in human Caco-2 cells; assay type: ADME, cell-based
[19] = AUClast in sixteen hrs fasted Sprague-Dawley rat at 3 mg/kg, po measured upto 24 hrs by LC-MS/MS analysis; assay type: ADME, organism-based; set-up: dose 3 mg/kg, time < 24 hrs, route po; settings: in vivo
[20] = Efflux ratio of apparent permeability across basolateral to apical side to apical to basolateral side in human Caco-2 cells; assay type: ADME, cell-based
Mus musculus [21] = experiment: Anti-alzheimer activity against triple transgenic mouse alzheimer disease model assessed as time spent in target zone at 30 mg/kg, po administered daily for 2.2 months and measured after 137 days by Morris water maze test (reference value: 4.48+/-1.63 sec); assay type: functional; settings: time 137 day
[22] = molecular target: T1, Mitogen-activated protein kinase 10 (Homo sapiens, UniProt P53779); experiment: Inhibition of JNK3 (unknown origin) using ATF2 as substrate incubated for 40 mins in presence of [gamma33P]ATP by scintillation counting analysis
T1 sequence (P53779 whole entry): as the sequence (P49187 whole entry) above, with H27Q, S32Y, V33I, V34A counted along it

[23] = molecular target: T1, Mitogen-activated protein kinase 10; experiment: Inhibition of JNK3 (unknown origin) at 1.0 uM preincubated for 20 mins followed by 33P-ATP addition and measured after 2 hrs by P81 filter binding method relative to control; settings: time 140.0 min
[24] = Apparent permeability of the compound across basolateral side to apical side in human Caco-2 cells; assay type: ADME, cell-based
Mus musculus [25] = experiment: Anti-alzheimer activity against triple transgenic mouse alzheimer disease model assessed as time spent in platform quadrant at 60 mg/kg, po administered daily for 2.2 months and measured after 137 days by Morris water maze test (reference value: 12.26+/-2.34 sec); assay type: functional; settings: time 137 day
[26] = Effective permeability of compound by […] method; assay type: ADME; settings: read-out: Peff
Mus musculus [27] = experiment: Anti-alzheimer activity against APP/PS1 dE9 double transgenic mouse model assessed as time spent in target zone at 30 mg/kg, po administered daily for 2 months and measured after 74 days by Morris water maze test (reference value: 6.76+/-3.20 sec); assay type: functional; settings: time 74 day
Mus musculus [28] = experiment: Anti-alzheimer activity against triple transgenic mouse alzheimer disease model assessed as path length at 30 mg/kg, po measured upto 5 days by Morris water maze test (reference value: 608.85+/-39.27 cm); assay type: functional; settings: time <= 5 day
Mus musculus [29] = experiment: Anti-alzheimer activity against triple transgenic mouse alzheimer disease model assessed as reduction in tau phosphorylation level at S202 residue in hippocampal tissue at 30 to 60 mg/kg by Western blot analysis; assay type: functional, organism-based; settings: dose 30-60 mg/kg
Mus musculus [30] = experiment: Anti-alzheimer activity against triple transgenic mouse alzheimer disease model assessed as time spent in platform quadrant at 30 mg/kg, po administered daily for 2.2 months and measured after 137 days by Morris water maze test (reference value: 12.26+/-2.34 sec); assay type: functional; settings: time 137 day
[31] = molecular target: Mitogen-activated protein kinase 9 (Homo sapiens, UniProt P45984); experiment: Inhibition of JNK2 (unknown origin) using ATF2 as substrate incubated for 40 mins in presence of [gamma33P]ATP by scintillation counting analysis
Mitogen-activated protein kinase 9, sequence (P45984 whole entry): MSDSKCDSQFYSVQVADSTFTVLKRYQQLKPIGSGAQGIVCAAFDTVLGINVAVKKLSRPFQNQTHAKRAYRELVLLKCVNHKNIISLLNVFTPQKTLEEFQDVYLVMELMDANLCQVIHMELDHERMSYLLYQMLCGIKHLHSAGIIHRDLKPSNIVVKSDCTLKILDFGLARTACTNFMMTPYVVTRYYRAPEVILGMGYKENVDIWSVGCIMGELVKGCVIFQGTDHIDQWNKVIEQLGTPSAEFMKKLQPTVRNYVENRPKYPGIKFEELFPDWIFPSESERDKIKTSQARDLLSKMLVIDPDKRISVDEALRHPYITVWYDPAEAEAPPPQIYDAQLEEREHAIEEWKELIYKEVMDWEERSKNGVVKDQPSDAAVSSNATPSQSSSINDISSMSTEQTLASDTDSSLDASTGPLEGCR

CNC(=O)Oc1cc(F)c2nc(-c3ccc4ccccc4c3)n(-c3ccnc(N[C@H]4CCCN(C(=O)C5CC5)C4)n3)c2c1
fold change (FC) (Neuron [1]): 2 | Time (Mus musculus [2]): 46.5 s | inhibition [3]: Active | Time (Mus musculus [4]): 16.28 s | Activity (Mus musculus [5]): 49.78% | Activity (Mus musculus [6]): 54.23% | Tmax [7]: 23.4 min | inhibition [8]: Active | Time (Mus musculus [9]): 31.6 s | Time (Mus musculus [10]): 16.27 s | inhibition [11]: Active | inhibition [12]: 20% | Time (Mus musculus [13]): 44.2 s | Time (Mus musculus [14]): 16.44 s | Activity (Neuron [15]): 28.4% | Activity (Mus musculus [16]): 372.7 cm | Activity (Mus musculus [17]): Active | Papp A→B [18]: 1.7 ×10⁻⁶ cm/s | AUC(0-t) at 24 h [19]: 727 ng·h/mL | efflux ratio [20]: 14.7 | Time (Mus musculus [21]): 17.1 s | IC50 [22]: 21 nM | inhibition [23]: 100% | Papp B→A [24]: 25.2 ×10⁻⁶ cm/s | Time (Mus musculus [25]): 22.59 s | Papp [26]: 55.8 ×10⁻⁶ cm/s | Time (Mus musculus [27]): 11.4 s | Activity (Mus musculus [28]): 402.59 cm | Activity (Mus musculus [29]): Active | Time (Mus musculus [30]): 23.4 s | IC50 [31]: 2200 nM
